Tested on: skin
Experiment: Test for skin accumulated stimulus, HRIPT (Human repeated insult patch tests)
Format: in vivo
Parameters: key to skin reactivity (ICDRG criteria): −: negative (no response); ±: doubtful or slight erythema, etc.; +: weak reaction (which is accompanied with no phlyctenule), erythema, papule; ++: severe reaction (which is accompanied with phlyctenule), erythema, papule, phlyctenule; +++: strong reaction, bullae reaction
Conditions: for Number of examinees who exhibited ±, +, or ++ reactivity, 1st: 1st patch; for Number of examinees who exhibited ±, +, or ++ reactivity, 2nd: 2nd patch; for Number of examinees who exhibited ±, +, or ++ reactivity, 3rd: 3rd patch; for Number of examinees who exhibited ±, +, or ++ reactivity, 4th: 4th patch; for Number of examinees who exhibited ±, +, or ++ reactivity, 5th: 5th patch; for Number of examinees who exhibited ±, +, or ++ reactivity, 6th: 6th patch; for Number of examinees who exhibited ±, +, or ++ reactivity, 7th: 7th patch; for Number of examinees who exhibited ±, +, or ++ reactivity, 8th: 8th patch; for average reactivity: 9 patches over 3 weeks, 15 examinees, less than 3 is considered a stable composition; for Number of examinees who exhibited ±, +, or ++ reactivity, 9th: 9th patch
Description: HRIPT (Human repeated insult patch tests) was conducted in order to identify skin accumulated stimulus of quercetin3-O-[3-O″-(E)-p-coumaroyl][β-D-glucopyranosyl-(1→3)-O-α-L-rhamnopyranosyl-(1→6)-O-β-D-glucopyranoside] and quercetin3-O-[3-O″-(E)-p-coumaroyl][α-L-rhamnopyranosyl-(1→6)-O-β-D-glucopyranoside] and to calculate the concentration range that can be used in skin. Specifically, 15 healthy adult examinees were randomly selected, and test compositions in which the compounds were respectively comprised in an amount of 0.5 wt. %, 1 wt. %, and 3 wt. % (the compositions for skin, comprising an emulsifying agent, a stabilizer, purified water, etc. in addition to the compounds) were dropped in the amount of 20 μl per chamber (IQ chamber, Epitest Ltd, Finland), and patched on the right site of the upper back of the examinees, and then, after 24 hours, the patch was replaced with a new patch. A total of 9 patches were conducted, three times a week for total 3 weeks, in such manner, the skin reactions before and after patch were examined every time, and the skin reactions until 48 hours after removing the final patch were observed, and the average reactivity was observed. The skin reaction was determined according to the criteria of International Contact Dermatitis Research Group (ICDRG). In the above table, “New Material 31” refers to quercetin3-O-[3-O″-(E)-p-coumaroyl][β-D-glucopyranosyl-(1→3)-O-α-L-rhamnopyranosyl-(1→6)-O-β-D-glucopyranoside], and “New Material 32” refers to quercetin3-O-[3-O″-(E)-p-coumaroyl][α-L-rhamnopyranosyl-(1→6)-O-β-D-glucopyranoside].

Number of examinees who exhibited ±, +, or ++ reactivity, 1st (0.5 wt. %, line 1 of 3 (±)): 0 number
Number of examinees who exhibited ±, +, or ++ reactivity, 1st (0.5 wt. %, line 2 of 3 (+)): 0 number
Number of examinees who exhibited ±, +, or ++ reactivity, 1st (0.5 wt. %, line 3 of 3 (++)): 0 number
Number of examinees who exhibited ±, +, or ++ reactivity, 2nd (0.5 wt. %, line 1 of 3 (±)): 0 number
Number of examinees who exhibited ±, +, or ++ reactivity, 2nd (0.5 wt. %, line 2 of 3 (+)): 0 number
Number of examinees who exhibited ±, +, or ++ reactivity, 2nd (0.5 wt. %, line 3 of 3 (++)): 0 number
Number of examinees who exhibited ±, +, or ++ reactivity, 3rd (0.5 wt. %, line 1 of 3 (±)): 0 number
Number of examinees who exhibited ±, +, or ++ reactivity, 3rd (0.5 wt. %, line 2 of 3 (+)): 0 number
Number of examinees who exhibited ±, +, or ++ reactivity, 3rd (0.5 wt. %, line 3 of 3 (++)): 0 number
Number of examinees who exhibited ±, +, or ++ reactivity, 4th (0.5 wt. %, line 1 of 3 (±)): 0 number
Number of examinees who exhibited ±, +, or ++ reactivity, 4th (0.5 wt. %, line 2 of 3 (+)): 0 number
Number of examinees who exhibited ±, +, or ++ reactivity, 4th (0.5 wt. %, line 3 of 3 (++)): 0 number
Number of examinees who exhibited ±, +, or ++ reactivity, 5th (0.5 wt. %, line 1 of 3 (±)): 0 number
Number of examinees who exhibited ±, +, or ++ reactivity, 5th (0.5 wt. %, line 2 of 3 (+)): 0 number
Number of examinees who exhibited ±, +, or ++ reactivity, 5th (0.5 wt. %, line 3 of 3 (++)): 0 number
Number of examinees who exhibited ±, +, or ++ reactivity, 6th (0.5 wt. %, line 1 of 3 (±)): 0 number
Number of examinees who exhibited ±, +, or ++ reactivity, 6th (0.5 wt. %, line 2 of 3 (+)): 0 number
Number of examinees who exhibited ±, +, or ++ reactivity, 6th (0.5 wt. %, line 3 of 3 (++)): 0 number
Number of examinees who exhibited ±, +, or ++ reactivity, 7th (0.5 wt. %, line 1 of 3 (±)): 0 number
Number of examinees who exhibited ±, +, or ++ reactivity, 7th (0.5 wt. %, line 2 of 3 (+)): 0 number
Number of examinees who exhibited ±, +, or ++ reactivity, 7th (0.5 wt. %, line 3 of 3 (++)): 0 number
Number of examinees who exhibited ±, +, or ++ reactivity, 8th (0.5 wt. %, line 1 of 3 (±)): 0 number
Number of examinees who exhibited ±, +, or ++ reactivity, 8th (0.5 wt. %, line 2 of 3 (+)): 0 number
Number of examinees who exhibited ±, +, or ++ reactivity, 8th (0.5 wt. %, line 3 of 3 (++)): 0 number
average reactivity (0.5 wt. %): 0
Number of examinees who exhibited ±, +, or ++ reactivity, 9th (0.5 wt. %, line 1 of 3 (±)): 0 number
Number of examinees who exhibited ±, +, or ++ reactivity, 9th (0.5 wt. %, line 2 of 3 (+)): 0 number
Number of examinees who exhibited ±, +, or ++ reactivity, 9th (0.5 wt. %, line 3 of 3 (++)): 0 number
Number of examinees who exhibited ±, +, or ++ reactivity, 1st (1 wt. %, line 1 of 3 (±)): 0 number
Number of examinees who exhibited ±, +, or ++ reactivity, 1st (1 wt. %, line 2 of 3 (+)): 0 number
Number of examinees who exhibited ±, +, or ++ reactivity, 1st (1 wt. %, line 3 of 3 (++)): 0 number
Number of examinees who exhibited ±, +, or ++ reactivity, 2nd (1 wt. %, line 1 of 3 (±)): 0 number
Number of examinees who exhibited ±, +, or ++ reactivity, 2nd (1 wt. %, line 2 of 3 (+)): 0 number
Number of examinees who exhibited ±, +, or ++ reactivity, 2nd (1 wt. %, line 3 of 3 (++)): 0 number
Number of examinees who exhibited ±, +, or ++ reactivity, 3rd (1 wt. %, line 1 of 3 (±)): 0 number
Number of examinees who exhibited ±, +, or ++ reactivity, 3rd (1 wt. %, line 2 of 3 (+)): 0 number
Number of examinees who exhibited ±, +, or ++ reactivity, 3rd (1 wt. %, line 3 of 3 (++)): 0 number
Number of examinees who exhibited ±, +, or ++ reactivity, 4th (1 wt. %, line 1 of 3 (±)): 0 number
Number of examinees who exhibited ±, +, or ++ reactivity, 4th (1 wt. %, line 2 of 3 (+)): 0 number
Number of examinees who exhibited ±, +, or ++ reactivity, 4th (1 wt. %, line 3 of 3 (++)): 0 number
Number of examinees who exhibited ±, +, or ++ reactivity, 5th (1 wt. %, line 1 of 3 (±)): 0 number
Number of examinees who exhibited ±, +, or ++ reactivity, 5th (1 wt. %, line 2 of 3 (+)): 0 number
Number of examinees who exhibited ±, +, or ++ reactivity, 5th (1 wt. %, line 3 of 3 (++)): 0 number
Number of examinees who exhibited ±, +, or ++ reactivity, 6th (1 wt. %, line 1 of 3 (±)): 0 number
Number of examinees who exhibited ±, +, or ++ reactivity, 6th (1 wt. %, line 2 of 3 (+)): 0 number
Number of examinees who exhibited ±, +, or ++ reactivity, 6th (1 wt. %, line 3 of 3 (++)): 0 number
Number of examinees who exhibited ±, +, or ++ reactivity, 7th (1 wt. %, line 1 of 3 (±)): 0 number
Number of examinees who exhibited ±, +, or ++ reactivity, 7th (1 wt. %, line 2 of 3 (+)): 0 number
Number of examinees who exhibited ±, +, or ++ reactivity, 7th (1 wt. %, line 3 of 3 (++)): 0 number
Number of examinees who exhibited ±, +, or ++ reactivity, 8th (1 wt. %, line 1 of 3 (±)): 0 number
Number of examinees who exhibited ±, +, or ++ reactivity, 8th (1 wt. %, line 2 of 3 (+)): 0 number
Number of examinees who exhibited ±, +, or ++ reactivity, 8th (1 wt. %, line 3 of 3 (++)): 0 number
average reactivity (1 wt. %): 0
Number of examinees who exhibited ±, +, or ++ reactivity, 9th (1 wt. %, line 1 of 3 (±)): 0 number
Number of examinees who exhibited ±, +, or ++ reactivity, 9th (1 wt. %, line 2 of 3 (+)): 0 number
Number of examinees who exhibited ±, +, or ++ reactivity, 9th (1 wt. %, line 3 of 3 (++)): 0 number
Number of examinees who exhibited ±, +, or ++ reactivity, 1st (3 wt. %, line 1 of 3 (±)): 0 number
Number of examinees who exhibited ±, +, or ++ reactivity, 1st (3 wt. %, line 2 of 3 (+)): 0 number
Number of examinees who exhibited ±, +, or ++ reactivity, 1st (3 wt. %, line 3 of 3 (++)): 0 number
Number of examinees who exhibited ±, +, or ++ reactivity, 2nd (3 wt. %, line 1 of 3 (±)): 0 number
Number of examinees who exhibited ±, +, or ++ reactivity, 2nd (3 wt. %, line 2 of 3 (+)): 0 number
Number of examinees who exhibited ±, +, or ++ reactivity, 2nd (3 wt. %, line 3 of 3 (++)): 0 number
Number of examinees who exhibited ±, +, or ++ reactivity, 3rd (3 wt. %, line 1 of 3 (±)): 0 number
Number of examinees who exhibited ±, +, or ++ reactivity, 3rd (3 wt. %, line 2 of 3 (+)): 0 number
Number of examinees who exhibited ±, +, or ++ reactivity, 3rd (3 wt. %, line 3 of 3 (++)): 0 number
Number of examinees who exhibited ±, +, or ++ reactivity, 4th (3 wt. %, line 1 of 3 (±)): 0 number
Number of examinees who exhibited ±, +, or ++ reactivity, 4th (3 wt. %, line 2 of 3 (+)): 0 number
Number of examinees who exhibited ±, +, or ++ reactivity, 4th (3 wt. %, line 3 of 3 (++)): 0 number
Number of examinees who exhibited ±, +, or ++ reactivity, 5th (3 wt. %, line 1 of 3 (±)): 0 number
Number of examinees who exhibited ±, +, or ++ reactivity, 5th (3 wt. %, line 2 of 3 (+)): 0 number
Number of examinees who exhibited ±, +, or ++ reactivity, 5th (3 wt. %, line 3 of 3 (++)): 0 number
Number of examinees who exhibited ±, +, or ++ reactivity, 6th (3 wt. %, line 1 of 3 (±)): 0 number
Number of examinees who exhibited ±, +, or ++ reactivity, 6th (3 wt. %, line 2 of 3 (+)): 0 number
Number of examinees who exhibited ±, +, or ++ reactivity, 6th (3 wt. %, line 3 of 3 (++)): 0 number
Number of examinees who exhibited ±, +, or ++ reactivity, 7th (3 wt. %, line 1 of 3 (±)): 0 number
Number of examinees who exhibited ±, +, or ++ reactivity, 7th (3 wt. %, line 2 of 3 (+)): 0 number
Number of examinees who exhibited ±, +, or ++ reactivity, 7th (3 wt. %, line 3 of 3 (++)): 0 number
Number of examinees who exhibited ±, +, or ++ reactivity, 8th (3 wt. %, line 1 of 3 (±)): 0 number
Number of examinees who exhibited ±, +, or ++ reactivity, 8th (3 wt. %, line 2 of 3 (+)): 0 number
Number of examinees who exhibited ±, +, or ++ reactivity, 8th (3 wt. %, line 3 of 3 (++)): 0 number
average reactivity (3 wt. %): 0
Number of examinees who exhibited ±, +, or ++ reactivity, 9th (3 wt. %, line 1 of 3 (±)): 0 number
Number of examinees who exhibited ±, +, or ++ reactivity, 9th (3 wt. %, line 2 of 3 (+)): 0 number
Number of examinees who exhibited ±, +, or ++ reactivity, 9th (3 wt. %, line 3 of 3 (++)): 0 number
skin reactivity (ICDRG criteria) (within the range of contents 0.5 wt. %, 1 wt. %, 3 wt. %): −
SMILES: C[C@@H]1O[C@@H](OC[C@H]2O[C@@H](Oc3c(-c4ccc(O)c(O)c4)oc4cc(O)cc(O)c4c3=O)[C@H](O)[C@@H](OC(=O)/C=C/c3ccc(O)cc3)[C@@H]2O)[C@H](O)[C@H](O[C@@H]2O[C@H](CO)[C@@H](O)[C@H](O)[C@H]2O)[C@H]1O [New Material 31, quercetin3-O-[3-O″-(E)-p-coumaroyl][β-D-glucopyranosyl-(1→3)-O-α-L-rhamnopyranosyl-(1→6)-O-β-D-glucopyranoside]]
